Tests used:
[1] = tested on: cryopreserved human hepatocytes in primary culture; assay: Unchanged drug disappearance / intrinsic metabolic clearance in primary cultures of cryopreserved human hepatocytes; format: in vitro ADME; details: for In vitro intrinsic hepatic clearance, Mean ± SD: mean of four hepatocyte preparations
Method: Cryopreserved human hepatocytes were plated on 48-well collagen-coated plastic plates in a chemically defined medium adapted from Isom and Georgoff ([1984]), consisting of a 50/50 (v/v) mixture of Ham F12/Williams E medium supplemented with 10% decomplemented fetal calf serum, 10 mg/L insulin, 0.8 mg/L glucagon and antibiotics (100 IU penicillin and 100 μg/mL streptomycin). After 4–6 h at 37°C in a 5% CO2 and 100% humidified atmosphere, period during which hepatocytes attached to the collagen-matrix, the plating medium was removed and replaced by the same serum-free culture medium supplemented with HEPES (3.6 g/L), ethanolamine (4 mg/L), transferrin (10 mg/L), linoleic acid albumin (1.4 mg/L), glucose (252 mg/L), sodium pyruvate (44 mg/L), ascorbic acid (50 mg/L), arginine (104 mg/L), and L-glutamine (0.7 g/L).
Experiments were performed in 48-well plastic plates coated with rat tail Collagen type I. Plates were seeded with 0.16 × 10^5 hepatocytes per well in a final volume of 0.2 mL and incubated at 37°C under a 95% humidified air and 5% CO2 atmosphere. After 3 h during which cells were allowed to attach, the medium was renewed with 0.1 mL serum-free medium. Then, the investigated drug or metabolic probe(s) were added directly to the incubation medium in the absence or the presence of inhibitors such as either ketoconazole as a specific and potent CYP3A inhibitor (3 μmol/L final concentration), clorgyline (0.25 μmol/L final concentration) as a potent MAO-A inhibitor or ABT as a potent but nonselective CYP isoforms inhibitor (1 mmol/L final concentration) (Fabre et al. [1988]; Bourrié et al. [1996]; Klieber et al. [2008]). Regardless of the final concentration investigated, the final solvent (DMSO) concentration never exceeded 0.2% (v/v).
To determine the metabolism of the different compounds (metabolic probes, dronedarone, N-debutyl-dronedarone, propanoic acid-dronedarone, phenol-dronedarone, and C-dealkyl-dronedarone), kinetic studies were performed over 0–24 h. For each time point, 0.1 mL of acetonitrile was added to the specific well for protein precipitation, and both extracellular medium and the cell fraction were scraped together. Cell extracts were transferred to a glass tube and stored at −20°C until analysis. Before analysis, cell homogenates were sonicated for a few seconds, homogenized and centrifuged at 6000 g for 10 min. Supernatant fluids were then analyzed for the different drugs and their specific metabolites.
LC/MS-MS analysis was performed using an Acquity UPLC System I-Class equipped with a Waters Acquity UPLC BEH C18 column (2.1 mm i.d. × 100 mm length, 1.7 μm particle size) coupled to a Xevo TQS mass spectrometer (all from Waters, Milford, MA) used in electrospray ion positive mode.
In human hepatocytes, the intrinsic in vitro metabolic clearances (Clint) were calculated using WinNonLin PK analysis software version 5.2. All disappearance kinetics data were fitted with a model using the following equation: [drawing 2] where ke is the elimination rate constant expressed in h^−1, and V is the incubation volume expressed in mL normalized to 10^6 hepatocytes. The equation was applied to the initial (linear) part of the concentration–time curve.
The kinetics of drug disappearance were investigated using four different cryopreserved human hepatocyte preparations in primary cultures following incubation with either dronedarone or its metabolites at a concentration of 5 μmol/L. Incubations were performed either in the absence, that is control conditions, or in the presence of enzyme system inhibitors such as 3 μmol/L ketoconazole (specific and potent inhibitor of CYP3A4/5), 1 mmol/L ABT (a potent and […] inhibitor of total CYPs), or 0.25 μmol/L clorgyline (a potent MAO-A inhibitor) (Dorris [1982]). Kinetic studies were performed over 24 h.

[2] = tested on: UGT1A1, UGT1A3, UGT1A4, UGT1A6, UGT1A7, UGT1A8, UGT1A9, UGT1A10, UGT2B4, UGT2B7, UGT2B15, and UGT2B17; assay: Glucuronidation by the panel of recombinant human UGT isoforms; format: in vitro ADME; details: 1 mg/mL, 5 μmol/L, 30 min, UDPGA
Text: Recombinant human CYPs (Supersomes™; BD Gentes, Woburn, MA: CYP1A1, CYP1A2, CYP2A6, CYP2B6, CYP2C8, CYP2C9, CYP2C18, CYP2C19, CYP2D6, CYP2E1, CYP3A4 and CYP3A5), FMOs (Supersomes™: FMO1, FMO3, FMO5), MAOs (Supersomes™: MAO-A and MAO-B), and UGTs (Supersomes™: UGT1A1, UGT1A3, UGT1A4, UGT1A6, UGT1A7, UGT1A8, UGT1A9, UGT1A10, UGT2B4, UGT2B7, UGT2B15, and UGT2B17) expressed in baculovirus-infected insect cells and control microsomes from insect cells infected with wild-type baculovirus were all obtained from BD Gentest (Woburn, MA).
For glucuronidation pathways, the assay mixture was composed of human liver microsomes (2 mg·mL^−1) or microsomes of baculovirus-infected cells expressing human UGTs (1 mg·mL^−1), uridine 5′-diphosphoglucuronic acid (UDPGA) (3 mmol/L), 100 mmol/L Tris HCl (pH 7.4) containing 5 mmol/L MgCl2 and 5 μmol/L of the investigated compound dissolved in DMSO in a final volume of 500 μL. The final concentration of DMSO in the reaction mixture was less than 1% (v/v). Initial rate conditions with respect to time and protein concentration for both the disappearance of unchanged drug and the formation of respective metabolites were established in preliminary studies. The microsomal mixture was first incubated for 10 min at 4°C in the presence of alamethicin (0.125 mg·mL^−1), then the reaction was initiated by addition of UDPGA (30 mmol/L aqueous solution) to achieve a final concentration of 3 mmol/L for UGT-dependent reactions, incubated at 37°C and stopped after 0–30 min by addition of one volume of ice-cold acetonitrile. […]
Figure 7 Contribution of individual UGTs to the glucuronidation of propanoic acid-dronedarone and phenol-dronedarone. […] Unchanged drugs were quantified by LC/MS-MS relative to the synthetic references as described in Materials and Methods. Data are expressed as the percentage of glucuronidation.

[3] = hepatocyte preparation BD-91, 5 μmol/L
[4] = hepatocyte preparation BD-296, 5 μmol/L
[5] = hepatocyte preparation HU-1359, 5 μmol/L
[6] = hepatocyte preparation IVT-IBG, 5 μmol/L

| In vitro intrinsic hepatic clearance [1, 3] [mL·h^−1·10^6 cells] | In vitro intrinsic hepatic clearance [1, 4] [mL·h^−1·10^6 cells] | In vitro intrinsic hepatic clearance [1, 5] [mL·h^−1·10^6 cells] | In vitro intrinsic hepatic clearance [1, 6] [mL·h^−1·10^6 cells] | In vitro intrinsic hepatic clearance, Mean ± SD ([1]; 5 μmol/L) [mL·h^−1·10^6 cells] | Glucuronidation by recombinant human UGT isoforms [2] | Drug metabolized within 6 h of incubation ([1]; 5 μmol/L, control conditions) | Mean maximal concentration of metabolite formed ([1]; hepatocytes incubated with 5 μmol/L dronedarone, control conditions without inhibitors) | In vitro intrinsic hepatic clearance, Mean ± SD ([1]; 5 μmol/L, listed as phenol-dronedarone) [mL·h^−1·10^6 cells] | Structure (SMILES) |
| --- | --- | --- | --- | --- | --- | --- | --- | --- | --- |
| 0.003 | 0.002 | 0.004 | 0.003 | 0.003 ± 0.001 | No glucuronidation was observed | – | – | – | CCCCN(CCCC)CCCOc1ccc(C(=O)O)cc1 [C-dealkyl-dronedarone] |
| 0.49 | 0.58 | 0.14 | 0.10 | 0.33 ± 0.21 | No glucuronidation was observed | more than 80% | – | – | CCCCc1oc2ccc(NS(C)(=O)=O)cc2c1C(=O)c1ccc(OCCCN(CCCC)CCCC)cc1.Cl [Dronedarone, N-(2-Butyl-3-(4-(3-(dibutylamino)propoxy)benzoyl)-5-benzofuranyl)methanesulfonamide, hydrochloride] |
| 0.18 | 0.10 | 0.10 | 0.08 | 0.13 ± 0.03 | No glucuronidation was observed | – | around 0.6 μmol/L | – | CCCCNCCCOc1ccc(C(=O)c2c(CCCC)oc3ccc(NS(C)(=O)=O)cc23)cc1 [N-debutyl-dronedarone] |
| 0.44 | 0.70 | 0.57 | 0.75 | 0.62 ± 0.12 | – | – | – | 0.61 ± 0.12 | CCCCc1oc2ccc(NS(C)(=O)=O)cc2c1C(=O)c1ccc(O)cc1 [Phenol-dronedarone] |
| 0.06 | 0.17 | 0.20 | 0.14 | 0.14 ± 0.05 | – | – | – | – | CCCCc1oc2ccc(NS(C)(=O)=O)cc2c1C(=O)c1ccc(OCCC(=O)O)cc1 [Propanoic acid-dronedarone] |
